Measured values reported in patent publication US4600780A, “N-cyano-formamidines” (Ferrer International, S.A., priority 1983, dated 1986).
Structures can show the parent of a compound that is named as a salt.

Target: T1, histamine H2 -receptors (Rattus norvegicus, UniProt P25102)
T1 construct: from tissue; host or cells: stomach of living anaesthetized Sprague-Dawley rats (in vivo perfusion)
Assay: Blocking activity of histamine H2-receptors: inhibition of histamine-induced perfusate pH decrease (gastric acid secretion) in perfused stomach of anaesthetized rats
Format: in vivo, Sprague-Dawley albino male rats
Conditions: for ED50: rat, iv, anaesthetized rats, perfused stomach, histamine 0.325 μmols/kg/min, test drugs via femoral veins, read-out: ED50 (inhibition rate of maximal pH decrease in relation to initial pH); for times more active than Cimetidine, according to ED50 values: ratio of ED50 values to Cimetidine (Table 1)
Method: The blocking activity of histamine H2 -receptors was tested in Sprague-Dawley albino male rats weighing 350-450 g. Animals subject to 18-hour fasting were anaesthetized with urethane (1.5 g/kg i.p.), after which a longitudinal incision was performed on the abdominal wall, and pylorus and esophagus were cannulated for subject perfusion. In addition, femoral veins were cannulated for administration of test drugs and histamine solution.
The animals' stomachs were perfused with 1/8000N NaOH diluted solution at a rate of 2 ml/min. The perfusion liquid was then circulated through a 3 ml-volume chamber provided with a pH meter electrode. After calibrating the pH, histamine was perfused at 0.325 μmols/kg/min. The histamine perfusion caused a decrease of the perfusion liquid pH, which was inhibited by the compounds of the present invention.

T1 sequence (P25102 whole entry, the tested form may be a part): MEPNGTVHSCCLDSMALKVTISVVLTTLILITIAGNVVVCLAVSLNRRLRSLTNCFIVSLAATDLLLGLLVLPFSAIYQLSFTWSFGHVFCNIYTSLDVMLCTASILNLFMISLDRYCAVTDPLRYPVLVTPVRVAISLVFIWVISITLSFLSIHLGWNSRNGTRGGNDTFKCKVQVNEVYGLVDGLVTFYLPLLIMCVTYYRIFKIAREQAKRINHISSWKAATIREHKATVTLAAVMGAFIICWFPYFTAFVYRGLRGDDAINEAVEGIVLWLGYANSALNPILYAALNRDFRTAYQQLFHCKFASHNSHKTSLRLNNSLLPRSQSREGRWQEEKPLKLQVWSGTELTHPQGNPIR

ED50	times more active than Cimetidine, according to ED50 values	SMILES
2.17 µmol/kg	2.6 times	N#CN=CNCCSCc1csc(NC(=N)N)n1 [Example 3, N-cyano-N'-[2-[[[2-[(aminoiminomethyl)amino]-4-thiazolyl]methyl]thio]ethyl]formamidine maleate acid]
3.2 µmol/kg	1.8 times	N#CN=CNCCCOc1cccc(CN2CCCCC2)c1 [Example 4, N-cyano-N'-[3-[3-(1-piperidinylmethyl)phenoxy]propyl]formamidine hydrochloride]

SMILES	ED50	times more active than Cimetidine, according to ED50 values
CN/C(=N/CCSCc1nc[nH]c1C)NC#N [Cimetidine, reference compound]	5.6 µmol/kg	–
